From patent US6893821B2, “Agents that modulate DNA-PK activity and methods of use thereof” (The Regents of the University of California, priority 2000, dated 2005)

What was measured:
Format in all cases: cell-based, mice
[1] = system: bone marrow derived macrophages (BMDM); assay: Northern blot of IL-6 and IL-12 mRNA in BMDM
Description: PCR were performed under the following conditions by appropriate cycling number (94° C. for 30 seconds; 65° C. for 30 seconds; and 68° C. for 30 seconds). PCR products were visualized by electrophoresis on 1.5% TAE agarose gels after being stained with ethidium bromide. BMDM isolated from either wild type or Ku 70^−/− mice were treated with ISS (10 μg/ml) or LPS (10 μg/ml) or left untreated for 6.5 hours. Total RNA was isolated and 10 μg of total RNA was separated on 1% agarose gel and then transferred onto a nylon membrane. The membrane was probed with [^32P]-labeled IL-6 or IL-12 or GAPDH cDNA followed by autoradiography, as described previously. Chu et al. (1999) Immunity 11:1.
BMDM (2.5×10^5/well) from wt, or Ku70^−/− and Ku80^−/− mice were treated with LPS (1 μg/ml), ISS-ODN (5 μg/ml) or M-ODN (5 μg/ml) for 24 hours. IL-6 (A) or IL-12 (B) levels in the supernatants were determined by ELISA. Results are means±S.D, of 5 separate experiments for wt and Ku70^−/− and 3 separate experiments for Ku80^−/− mice. (C) BMDM were incubated with LPS (10 μg/ml) or ISS-ODN (5 μg/ml) for 6.5 hours. Total RNA was isolated and analyzed for the presence of IL-6, IL-12 and GAPDH messages by a Northern blot assay, as described in Example 1. Results are means±S.D. of 5 separate experiments for wt and Ku70^−/− and 3 separate experiments for Ku80^−/− mice. […]

NF-κB = NF-κB activation in treated BMDM (EMSA)
Description: The ODNs (ps-ss) used include an ISS-ODN with an active CpG motif (AACGTT), a methylated ISS-ODN at the ^5C of the CpG dinucleotide (AA*CGTT) and various control ODNs. These ODNs were incubated at concentrations of 0, 0.1, 0.3, or 1 ng/reaction. The po-ISS-ODN was incubated at concentration of 20, 50 or 100 ng/reaction. The po-ds-ISS-ODN was incubated at concentration of 0, 0.5, 1, 2, 5 or 10 ng/reaction. The bacterial or calf thymus DNAs were each incubated at concentration of 1, 2 or 5 ng/reaction. Electrophoretic gel mobility shift assay (EMSA) was performed as previously described. Chu et al. (1999) Immunity 11:721-731; and Li et al., 1999, supra). In vitro IKK kinase assays were performed using purified IKK derived from Sf9 insect cell lysates as was previously described. Zandi et al. (1998) Science 281:1360-1363.

DNA-PK [2] = target: T1, DNA-PK (Mus musculus, UniProt P23475+P27641+P97313); assay: DNA-PK activity in treated BMDM by immune-complex kinase assay; details: wt BMDM
T1 construct: endogenous in cells; host or cells: mouse bone marrow-derived macrophages (BMDM)
Description: (§1) Kinase assays and immunoblotting were performed according to Li et al. ((1999) J. Exp. Med. 189:1839-1845). Briefly, BMDM were treated with ISS-ODN (5 μg/ml), M-ODN (5 μg/ml) on ps and po backbones as indicated, LPS-free bacterial DNA or methylated bacterial DNA (5 μg/ml), LPS-free calf thymus DNA (5 μg/ml), LPS (10 μg/ml) or TNFα (10 ng/ml) for the indicated time periods. Cell lysates were prepared and normalized by immunoblotting (IB) with anti-IKKα polyclonal antibodies (Santa Cruz, Santa Cruz Biotech Inc., Calif.), anti-IKKβ polyclonal antbodies (Santa Cruz) or anti-DNA-PKcs monoclonal antibodies (NeoMarker, Calif.). IκB kinase (IKK) complex or DNA-PK complex from 100 μg of the lysates were immunoprecipitated by anti-IKKα or by anti-DNA-PKcs antibodies. The kinase activities (KA) were determined by a kinase assay using the N-terminus of IκBα (for IKK) or the N-terminus of p53 (for DNA-PK) as a substrate as previously described. Wang et al. (1992) Proc. Natl. Acad. Sci. USA 89:4231-4235; Li et al.(1999), supra; and Hammarsten et al. (2000) J. Biol. Chem. 275:1541-1545.
(§2) To further determine whether ISS-ODN, po-ISS-ODN or bacterial DNA activate DNA-PK in cells, we treated BMDM from either wt or DNA-PKcs-deficient mice with ISS-ODN, po-ISS-ODN, bacterial DNA or LPS as a control.

DNA-PK [3] = assay: as above; details: DNA-PKcs-deficient BMDM
Description: as §1, §2

## 5′-TGACTGTGAACGTTCGAGATGA-3′ [ISS-ODN]
[1]; DNA-PKcs-deficient BMDM
  induction of IL-6 and IL-12 mRNAs: Little induction
[1]; Ku70-/- or Ku80-/- BMDM, 6.5 hours
  induction of IL-6 and IL-12 mRNA (Northern blot): lack of induction
NF-κB; ATM-deficient BMDM
  NF-κB activation, wt vs ATM-deficient BMDM: no differences were observed
NF-κB; DNA-PKcs-/- BMDM
  NF-κB activation: impaired NF-κB activation
NF-κB; IKKβ-/- Tnfr-/- BMDM (absence of IKKβ)
  NF-κB activation: prevented
DNA-PK [2]
  time of peak DNA-PK activity: 1 h
DNA-PK [2]; 30-minute incubation
  DNA-PK activity in cells: Considerable DNA-PK activity
DNA-PK [3]
  DNA-PK activity in cells: Little or no DNA-PK activity
